Data set [1] can be described thus: Circular dichroism of β-peptide solutions. As to conditions: 0.1 mM peptide, 20 °C, consistent with 14-helicity without aggregation. Format: physicochemical.
For data set [2] the following is noted: read-out: IC50 (antifungal); isotonic glucose phosphate buffer; cited from earlier work.

Take “Coumarin-linker-(ACHC-β^3hVal-β^3hLys)3 [β-peptide 1]”: the “CD minimum in methanol” value in data set [1] was 214 nm. With magainin-2, the IC50 in data set [2] was 300 nM.
